This note sets out measurements from patent publication US20240299379A1, “COMPOSITIONS OF CLOFAZIMINE AND AMIKACIN FOR PULMONARY ADMINISTRATION IN THE TREATMENT OF RESPIRATORY DISEASES” (BOARD OF REGENTS, THE UNIVERSITY OF TEXAS SYSTEM, priority 2021, published 2024).

A short description of data set [1]: Aerosol performance of physical blends, Next Generation Impactor, medium resistance RS01 DPI. The note with it: RS01 device. The data set is classed as physicochemical. As to the method: (§1) The aerosol performance of the physically blended mixtures was determined using cascade impaction, specifically as Next Generation Impactor, as prescribed by the United States Pharmacopeia chapter 601. For these studies, a medium resistance Model 7 RS01 dry powder inhaler (DPI) manufactured by Berry Global Osnago was utilized. 20 mg of the physical blends (1:0.5 CFZ-AMK, 1:2 CFZ-AMK, 1:4 CFZ-AMK, or 1:8 CFZ-AMK) or 10 mg of air jet milled clofazimine or air jet milled amikacin sulfate alone was loaded into a size 3 hydroxypropyl methylcellulose (HPMC) capsule. The device was actuated at an airflow rate to induce a 4 kPa pressure drop (i.e., 80 L/min) or 2 kPa pressure drop (i.e., 56.6 L/min) through the device for period of time sufficient to draw 4 L of air through the apparatus. To reduce particle bounce and re-entrainment, the NGI plates were coated with 1% (v/v) glycerin in ethanol and allowed to dry prior to performing the experiment. After actuation, powder was collected from the capsule, device, induction port, and stages of the Next Generation Impactor by adding a volume of 75/25 acetonitrile/water containing 0.16 mg/mL polysorbate 80 that was sufficient to dissolve the deposited powder. Phase separation of the solution into an organic phase containing clofazimine and an aqueous phase containing amikacin was induced by adding a volume of 5 M ammonium acetate equivalent to 16.7% of the original solution volume. The organic and aqueous phases were analyzed using high pressure liquid chromatography and concentration of each drug was quantified using a previously prepared standard curve.
(§2) Stage 1-7 cut-off diameters were determined using equation 1 and MOC cut-off diameters were determined using equation 2.
(§3) where D50,Q is the cutoff diameter at the flow rate, Q, and the subscript, n, refers to the archival reference value for Qn=60 L/min, and the values for the exponent, x, were determined by the archival NGI stage cut size-flow rate calculations, as determined by Marple et al.
(§4) The emitted fraction (EF) was calculated as the total drug emitted from the device as a percentage of the total mass of drug collected (i.e., recovered dose). The respirable fraction that was less than 5 μm aerodynamic diameter and less than 3 μm aerodynamic diameter corresponded to the percentage of the recovered dose predicted to have the aerodynamic diameter below 5 μm and 3 μm. The respirable fraction values were interpolated from a graph with the cumulative percentage of the emitted dose deposited downstream from an NGI stage as the ordinate and the particle cutoff size of that stage as the abscissa. For each sample, the mass median aerodynamic diameter (MMAD), which represents the mass-based median point of the aerodynamic particle size distribution (APSD), and geometric standard deviation (GSD), which represents the spread of the APSD, were determined by plotting the cumulative percentage of mass less than the stated aerodynamic size cut (expressed as Probits) against the aerodynamic diameter (log scale). Distributions were log normal. A linear regression was performed to determine the aerodynamic diameters corresponding to the 50% percentile (Probit 5) to determine the MMAD, and the aerodynamic diameters corresponding the 15.87% percentile (Probit 4) and 84.13% percentile (Probit 6) to calculate the GSD. The results of this analysis are shown in Table 5-8 and FIG. 2, and are presented as mean±standard deviation (n=3)

Data set [2] is described as follows: Aerosol performance of clofazimine and amikacin co-administered from dual chamber Dualhaler DPI, Next Generation Impactor. Format: physicochemical. Particulars: Dualhaler device.
The nature of data set [3]: Geometric particle size distribution by laser diffraction (Sympatec HELOS, RODOS dry dispersion). The data set is classed as physicochemical. The note with it: micronized with Model 00 Jet-O-Mizer Air Jet Mill. As to the method:
PSD was calculated using Fraunhofer theory using the Sympatec laser diffractor. […] Measurements were taken every 5 msec […] following powder dispersion. Measurements that were between 5-25% optical density were averaged to determine particle size distribution. Data was analyzed using HELOS software version 5.6.0.0 with an HRLD model to convert the scattering pattern to a particle size distribution.

Data set [4] in a line: Aerosol performance of composite spray dried particles, Next Generation Impactor, medium resistance RS01 DPI. The data set is classed as physicochemical. The note with it: spray dried powder, RS01 device. The procedure:
as §1, with “the composite spray dried particles” for “the physically blended mixtures”, “the spray dried powders (1:2” for “the physical blends (1:0.5 CFZ-AMK, 1:2”, “or spray dried” for “or air jet milled”, “capsule. For these studies, spray dried clofazimine was not tested due to the extremely low powder yield and the tendency of the particles to dry as large needle structures.” for “capsule.”
as §2, §3
as §4, with “Tables 11-14” for “Table 5-8”, “11,” for “2,”

Data set [5] concerns Mab-infected THP-1 macrophages. Put plainly: In vitro efficacy study, micronized CFZ particles added to media containing AMK. The data set is classed as cell-based, Mycobacterium abscessus (Mab).
Where [6] appears, read: 2 kPa pressure drop, amikacin component (Table 7).
[7] abbreviates: 4 kPa pressure drop, amikacin component.
The mark [8] stands for this setting: 2 kPa pressure drop, amikacin component (Table 17).
The mark [9] stands for this setting: 4 kPa pressure drop, clofazimine component as titled (Table 13, reference Spray dried AMK-S alone).
Setting [10] is: 2 kPa pressure drop, amikacin component as titled (Table 8, reference Jet milled CFZ alone).
The mark [11] stands for this setting: 4 kPa pressure drop, clofazimine component.
Where [12] appears, read: 2 kPa pressure drop, clofazimine component.
[13] abbreviates: 4 kPa pressure drop, clofazimine component (Table 12).
Setting [14] is: 2 kPa pressure drop, amikacin component as titled (Table 18, reference Jet milled CFZ alone).

Counter-ions that a name gives are not always drawn.

For the molecule `NCC[C@H](O)C(=O)NC1C[C@H](N)[C@@H](O[C@H]2O[C@H](CN)[C@H](O)[C@H](O)[C@H]2O)[C@H](O)[C@H]1O[C@H]1O[C@H](CO)[C@@H](O)[C@H](N)[C@H]1O` (stereo partly drawn) [Jet milled AMK-S alone, (2S)-4-amino-N-[(2S,3S,4R,5S)-5-amino-2-[(2S,3R,4S,5S,6R)-4-amino-3,5-dihydroxy-6-(hydroxymethyl)oxan-2-yl]oxy-4-[(2R,3R,4S,5R,6R)-6-(aminomethyl)-3,4,5-trihydroxy-oxan-2-yl]oxy-3-hydroxy-cyclohexyl]-2-hydroxybutanamide], the “EF (emitted fraction)” value in data set [1] (setting [6]) turned out to be 77.2 ± 11.2%; in data set [1] (setting [7]), 82.1 ± 1.2%; in data set [2] (setting [8]), 14.1 ± 23.7%; in data set [2] (setting [7]), 47.8 ± 13.8%. In addition, the MMAD is on record as 8.23 ± 0.57 μm in data set [1] (setting [6]) and 9.07 ± 1.76 μm in data set [1] (setting [7]). In addition, the “RF < 3 μm” value is listed as 30.4 ± 3.4% in data set [1] (setting [6]), 28.2 ± 4.9% in data set [1] (setting [7]), 15.5 ± 2.4% in data set [2] (setting [8]) and 22.6 ± 1.4% in data set [2] (setting [7]). Also, the “RF < 5 μm” value in data set [1] (setting [6]) worked out at 48.3 ± 3.8%; in data set [1] (setting [7]) it was 40.8 ± 7.2%; in data set [2] (setting [8]), 23.4 ± 4.6%; in data set [2] (setting [7]) it was 28.6 ± 1.5%.

As for `NCC[C@H](O)C(=O)NC1C[C@H](N)[C@@H](O[C@H]2O[C@H](CN)[C@H](O)[C@H](O)[C@H]2O)[C@H](O)[C@H]1O[C@H]1O[C@H](CO)[C@@H](O)[C@H](N)[C@H]1O` (stereo partly drawn) [AMK sulfate, (2S)-4-amino-N-[(2S,3S,4R,5S)-5-amino-2-[(2S,3R,4S,5S,6R)-4-amino-3,5-dihydroxy-6-(hydroxymethyl)oxan-2-yl]oxy-4-[(2R,3R,4S,5R,6R)-6-(aminomethyl)-3,4,5-trihydroxy-oxan-2-yl]oxy-3-hydroxy-cyclohexyl]-2-hydroxybutanamide], in data set [3], the X50 particle diameter is on record as 4.04 μm and the X90 particle diameter came out at 7.72 μm.

`NCC[C@H](O)C(=O)NC1C[C@H](N)[C@@H](O[C@H]2O[C@H](CN)[C@H](O)[C@H](O)[C@H]2O)[C@H](O)[C@H]1O[C@H]1O[C@H](CO)[C@@H](O)[C@H](N)[C@H]1O` (stereo partly drawn) [Spray dried AMK-S alone, (2S)-4-amino-N-[(2S,3S,4R,5S)-5-amino-2-[(2S,3R,4S,5S,6R)-4-amino-3,5-dihydroxy-6-(hydroxymethyl)oxan-2-yl]oxy-4-[(2R,3R,4S,5R,6R)-6-(aminomethyl)-3,4,5-trihydroxy-oxan-2-yl]oxy-3-hydroxy-cyclohexyl]-2-hydroxybutanamide]: in data set [4] (setting [7]), the “EF (emitted fraction)” value came out at 61.9 ± 8.6%, the MMAD is given as 6.23 ± 0.97 μm, the “RF < 3 μm” value came to 44.5 ± 3.6% and the “RF < 5 μm” value is 50.8 ± 5.8%. In data set [4] (setting [9]), the “EF (emitted fraction)” value came out at 43.3 ± 8.7%, the MMAD is on record as 11.29 ± 2.93 μm, the “RF < 3 μm” value is reported as 31.8 ± 6.9% and the “RF < 5 μm” value was found to be 37.6 ± 6.2%.

Take `CC(C)N=c1cc2n(-c3ccc(Cl)cc3)c3ccccc3nc-2cc1Nc1ccc(Cl)cc1` [Jet milled CFZ alone, N,5-bis(4-chlorophenyl)-3-(1-methylethylimino)-5H-phenazin-2-amine]: the “EF (emitted fraction)” value in data set [1] (setting [10]) came to 80.7 ± 9.7%; in data set [1] (setting [11]) it was 76.2 ± 4.1%; in data set [4] (setting [12]) it was 80.7 ± 9.7%; in data set [4] (setting [13]), 76.2 ± 4.1%; in data set [2] (setting [14]), 41.2 ± 4.1%; in data set [2] (setting [11]), 44.9 ± 16.1%. Moreover, the MMAD in data set [1] (setting [10]) stood at 10.08 ± 7.79 μm; in data set [1] (setting [11]) it was 5.36 ± 0.53 μm; in data set [4] (setting [12]), 10.08 ± 7.79 μm; in data set [4] (setting [13]), 5.36 ± 0.53 μm. Also, the “RF < 3 μm” value in data set [1] (setting [10]) was found to be 37.5 ± 18.2%; in data set [1] (setting [11]), 47.4 ± 3.7%; in data set [4] (setting [12]), 37.5 ± 18.2%; in data set [4] (setting [13]) it was 47.4 ± 3.7%; in data set [2] (setting [14]) it was 19.8 ± 2.2%; in data set [2] (setting [11]) it was 25.1 ± 10.9%. In addition, the “RF < 5 μm” value is given as 51.0 ± 19.0% in data set [1] (setting [10]); 58.8 ± 4.7% in data set [1] (setting [11]); 51.0 ± 19.0% in data set [4] (setting [12]); 58.8 ± 4.7% in data set [4] (setting [13]); 26.1 ± 3.1% in data set [2] (setting [14]); 30.8 ± 12.6% in data set [2] (setting [11]). In addition, the “Intracellular drug accumulation with increasing doses” value in data set [5] (increasing doses of micronized CFZ) is on record as “notable increase in intracellular drug accumulation”. The “Change in intracellular bacterial burden with increasing doses” value in data set [5] (increasing doses of micronized CFZ, with AMK) is “no statistically significant changes”. Besides, the “Intracellular Mab bacilli compared to the use of AMK alone” value in data set [5] (micronized CFZ particles added to media containing 40 μg/mL AMK) is reported as “statistically significant reduction”.
